# System: SARS-CoV-2 strain USA-WA1/2020
# Test: microbe, parasite or virus in culture
# Format: cell-based
# Settings: Severe acute respiratory syndrome coronavirus 2, HeLa-ACE2, 24 h, HeLa-ACE2 cells, SARS-CoV-2 infection, 24 h; bound printed in cell; read-out: EC50, uM (Hela)
row,SMILES,EC50
1,"CC[C@](C)(O)C(=O)N1C[C@H]2[C@@H]([C@H]1C(=O)N[C@@H](C[C@@H]1CCNC1=O)C(=O)COC(F)(F)F)C2(C)C [Compound 367, (1R,2S,5S)-3-((S)-2-hydroxy-2-methylbutanoyl)-6,6-dimethyl-N-((S)-3-oxo-1-((S)-2-oxopyrrolidin-3-yl)-4-(trifluoromethoxy)butan-2-yl)-3-azabicyclo[3.1.0]-hexane-2-carboxamide]",> 1 µM

# Same assay, conditions: Severe acute respiratory syndrome coronavirus 2, HeLa-ACE2, 24 h, HeLa-ACE2 cells, SARS-CoV-2 infection, 24 h; class symbols; read-out: EC50, uM (Hela)
row,SMILES,EC50
1,"CC(C)(C)[C@H](O)C(=O)N1C[C@H]2[C@@H]([C@H]1C(=O)N[C@@H](C[C@@H]1CCNC1=O)C(=O)COC(F)(F)F)C2(C)C [Compound 345, (1R,2S,5S)-3-((S)-2-hydroxy-3,3-dimethylbutanoyl)-6,6-dimethyl-N-((S)-3-oxo-1-((S)-2-oxopyrrolidin-3-yl)-4-(trifluoromethoxy)butan-2-yl)-3-azabicyclo-[3.1.0]hexane-2-carboxamide]",< 0.05 µM
2,"CC(C)C[C@H](NC(=O)C(=O)NC1(C)CC1)C(=O)N[C@@H](C[C@@H]1CCNC1=O)C(=O)COc1c(F)c(F)cc(F)c1F [Compound 99, N1-((S)-4-methyl-1-oxo-1-(((S)-3-oxo-1-((S)-2-oxopyrrolidin-3-yl)-4-(2,3,5,6-tetrafluorophenoxy)butan-2-yl)amino)pentan-2-yl)-N2-(1-methyl-cyclopropyl)oxalamide]",0.05 to 0.2 µM
3,"CC(C)C[C@H](NC(=O)C1OCCC1(F)F)C(=O)N[C@@H](C[C@@H]1CCNC1=O)C(=O)COC(F)(F)F (stereo partly drawn) [Compound 324, 3,3-difluoro-N-((S)-4-methyl-1-oxo-1-(((S)-3-oxo-1-((S)-2-oxopyrrolidin-3-yl)-4-(trifluoromethoxy)butan-2-yl)amino)pentan-2-yl)tetrahydrofuran-2-carboxamide]",0.05 to 0.2 µM
4,"CC(C)C[C@H](NC(=O)c1cc(-c2ccccc2F)on1)C(=O)N[C@@H](C[C@@H]1CCNC1=O)C(=O)COC(F)(F)F [Compound 171, 5-(2-fluorophenyl)-N-((S)-4-methyl-1-oxo-1-(((S)-3-oxo-1-((S)-2-oxopyrrolidin-3-yl)-4-(trifluoromethoxy)butan-2-yl)amino)pentan-2-yl)isoxazole-3-carboxamide]",< 0.05 µM
5,"CC(C)[C@H](NC(=O)C(=O)Nc1ccccc1F)C(=O)N[C@@H](C[C@@H]1CCNC1=O)C(=O)COc1c(F)c(F)cc(F)c1F [Compound 90, N1-(2-fluorophenyl)-N2-((S)-3-methyl-1-oxo-1-(((S)-3-oxo-1-((S)-2-oxopyrrolidin-3-yl)-4-(2,3,5,6-tetrafluorophenoxy)butan-2-yl)amino)butan-2-yl)oxalamide]",0.05 to 0.2 µM
6,"COc1cccc(NC(=O)C(=O)N[C@@H](CC(C)C)C(=O)N[C@@H](C[C@@H]2CCNC2=O)C(=O)COc2c(F)c(F)cc(F)c2F)c1 [Compound 120, N1-(3-methoxyphenyl)-N2-((S)-4-methyl-1-oxo-1-(((S)-3-oxo-1-((S)-2-oxopyrrolidin-3-yl)-4-(2,3,5,6-tetrafluorophenoxy)butan-2-yl)amino)pentan-2-yl)oxalamide]",< 0.05 µM
7,"CC(C)(C)C[C@H](NC(=O)c1cc2cc(F)ccc2[nH]1)C(=O)N[C@@H](C[C@@H]1CCNC1=O)C(=O)COc1c(F)c(F)cc(F)c1F [Compound 13, N-((S)-4,4-dimethyl-1-oxo-1-(((S)-3-oxo-1-((S)-2-oxopyrrolidin-3-yl)-4-(2,3,5,6-tetrafluorophenoxy)butan-2-yl)amino)pentan-2-yl)-5-fluoro-1H-indole-2-carboxamide]",0.5 to 1 µM
8,"CCc1ccccc1NC(=O)C(=O)N[C@@H](CC(C)C)C(=O)N[C@@H](C[C@@H]1CCNC1=O)C(=O)COc1c(F)c(F)cc(F)c1F [Compound 63, N1-(2-ethylphenyl)-N2-((S)-4-methyl-1-oxo-1-(((S)-3-oxo-1-((S)-2-oxopyrrolidin-3-yl)-4-(2,3,5,6-tetrafluorophenoxy)butan-2-yl)amino)pentan-2-yl)oxalamide]",< 0.05 µM
9,"CC[C@@H](C)[C@@H](O)C(=O)N1C[C@@H]2CCC[C@@H]2[C@H]1C(=O)N[C@@H](C[C@@H]1CCNC1=O)C(=O)COC(F)(F)F [Compound 379, (1S,3aR,6aS)-2-((2R,3R)-2-hydroxy-3-methylpentanoyl)-N-((S)-3-oxo-1-((S)-2-oxopyrrolidin-3-yl)-4-(trifluoromethoxy)butan-2-yl)octahydrocyclo-penta[c]pyrrole-1-carboxamide]",< 0.05 µM
10,"CC1(C)[C@@H]2[C@@H](C(=O)N[C@@H](C[C@@H]3CCNC3=O)C(=O)COC(F)(F)F)N(C(=O)c3cc(C(F)(F)F)on3)C[C@@H]21 [Compound 283, (1R,2S,5S)-6,6-dimethyl-N-((S)-3-oxo-1-((S)-2-oxopyrrolidin-3-yl)-4-(trifluoromethoxy)butan-2-yl)-3-(5-(trifluoromethyl)-isoxazole-3-carbonyl)-3-azabicyclo[3.1.0]-hexane-2-carboxamide]",< 0.05 µM
11,"Cc1cccc(C)c1NC(=O)C(=O)N[C@@H](CC(C)C)C(=O)N[C@@H](C[C@@H]1CCNC1=O)C(=O)COc1c(F)c(F)cc(F)c1F [Compound 64, N1-(2,6-dimethylphenyl)-N2-((S)-4-methyl-1-oxo-1-(((S)-3-oxo-1-((S)-2-oxopyrrolidin-3-yl)-4-(2,3,5,6-tetrafluorophenoxy)butan-2-yl)amino)pentan-2-yl)oxalamide]",< 0.05 µM
12,"CC(C)C[C@H](NC(=O)C(=O)Nc1ccccc1F)C(=O)N[C@@H](CCC(=O)N(C)C)C(=O)COc1c(F)c(F)cc(F)c1F [Compound 123, N1-((S)-1-(((S)-6-(dimethylamino)-2,6-dioxo-1-(2,3,5,6-tetrafluorophenoxy)-hexan-3-yl)amino)-4-methyl-1-oxopentan-2-yl)-N2-(2-fluorophenyl)oxalamide]",0.05 to 0.2 µM
13,"CC1(NC(=O)C(=O)N[C@@H](CC2CC2)C(=O)N[C@@H](C[C@@H]2CCNC2=O)C(=O)COC(F)(F)F)CC(F)(F)C1 [Compound 220, N1-((S)-3-cyclopropyl-1-oxo-1-(((S)-3-oxo-1-((S)-2-oxopyrrolidin-3-yl)-4-(trifluoromethoxy)butan-2-yl)amino)propan-2-yl)-N2-(3,3-difluoro-1-methylcyclobutyl)-oxalamide]",< 0.05 µM

# Same assay, conditions: Severe acute respiratory syndrome coronavirus 2, HeLa-ACE2, 24 h, HeLa-ACE2 cells, SARS-CoV-2 infection, 24 h; read-out: EC50, uM (Hela)
row,SMILES,EC50
1,"O=C1NCC[C@H]1C[C@H](NC(=O)[C@@H]1CC2(CC2)CN1C(=O)[C@H](O)CC(C(F)(F)F)C(F)(F)F)C(=O)COC(F)(F)F [Compound 744, (S)-N-((S)-3-oxo-1-((S)-2-oxopyrrolidin-3-yl)-4-(trifluoromethoxy)butan-2-yl)-5-((R)-5,5,5-trifluoro-2-hydroxy-4-(trifluoromethyl)pentanoyl)-5-azaspiro[2.4]heptane-6-carboxamide]",< 0.05 µM
2,"CC(C)C(=O)N1CC2(CC2)C[C@H]1C(=O)N[C@@H](C[C@@H]1CCNC1=O)C(=O)COC(F)(F)F [Compound 704, (S)-5-isobutyryl-N-((S)-3-oxo-1-((S)-2-oxopyrrolidin-3-yl)-4-(trifluoromethoxy)butan-2-yl)-5-azaspiro[2.4]heptane-6-carboxamide]",0.05 to 0.2 µM
3,"CC(C)(C)NC(=O)C(=O)N1CC2(CCC2)CC1C(=O)N[C@@H](C[C@@H]1CCNC1=O)C(=O)COC(F)(F)F (stereo partly drawn) [Compound 511, 6-(2-(tert-butylamino)-2-oxoacetyl)-N-((S)-3-oxo-1-((S)-2-oxopyrrolidin-3-yl)-4-(trifluoromethoxy)butan-2-yl)-6-azaspiro[3.4]-octane-7-carboxamide]",0.05 to 0.2 µM
4,"[2H]C([2H])([2H])C([2H])([2H])C([2H])([2H])C([2H])([2H])C(=O)N1CC2(CC2)C[C@H]1C(=O)N[C@@H](C[C@@H]1CCNC1=O)C(=O)COC(F)(F)F [Compound 732, (S)-N-((S)-3-oxo-1-((S)-2-oxopyrrolidin-3-yl)-4-(trifluoromethoxy)butan-2-yl)-5-(pentanoyl-d9)-5-azaspiro[2.4]heptane-6-carboxamide]",< 0.05 µM
5,"CCC(=O)N1CC2(CC2)C[C@H]1C(=O)N[C@@H](C[C@@H]1CCNC1=O)C(=O)COC(F)(F)F [Compound 688, (S)-N-((S)-3-oxo-1-((S)-2-oxopyrrolidin-3-yl)-4-(trifluoromethoxy)butan-2-yl)-5-propionyl-5-azaspiro[2.4]heptane-6-carboxamide]",0.05 to 0.2 µM
6,"O=C1NCC[C@H]1C[C@H](NC(=O)[C@@H]1C[C@@H](C(F)(F)F)CN1C(=O)[C@@H](O)c1ccccc1)C(=O)COC(F)(F)F [Compound 785, (2S,4R)-1-((S)-2-hydroxy-2-phenylacetyl)-N-((S)-3-oxo-1-((S)-2-oxopyrrolidin-3-yl)-4-(trifluoromethoxy)butan-2-yl)-4-(trifluoromethyl)pyrrolidine-2-carboxamide]",0.05 to 0.2 µM
7,"Cc1ccccc1NC(=O)c1cn([C@@H](CC(C)C)C(=O)N[C@@H](C[C@@H]2CCNC2=O)C(=O)COC(F)(F)F)nn1 [Compound 552, 1-((S)-4-methyl-1-oxo-1-(((S)-3-oxo-1-((S)-2-oxopyrrolidin-3-yl)-4-(trifluoromethoxy)butan-2-yl)amino)pentan-2-yl)-N-(o-tolyl)-1H-l,2,3-triazole-4-carboxamide]",< 0.05 µM
8,"O=C1NCC[C@H]1C[C@H](NC(=O)[C@@H]1CC2(CC2)CN1C(=O)CC(F)(F)C(F)F)C(=O)COC(F)(F)F [Compound 684, (S)-N-((S)-3-oxo-1-((S)-2-oxopyrrolidin-3-yl)-4-(trifluoromethoxy)butan-2-yl)-5-(3,3,4,4-tetrafluorobutanoyl)-5-azaspiro[2.4]heptane-6-carboxamide]",0.05 to 0.2 µM
9,"CC[C@@H](N)C(=O)N1C[C@H]2[C@@H]([C@H]1C(=O)N[C@@H](C[C@@H]1CCNC1=O)C(=O)COC(F)(F)F)C2(C)C [Compound 439, (1R,2S,5S)-3-((R)-2-aminobutanoyl)-6,6-dimethyl-N-((S)-3-oxo-1-((S)-2-oxopyrrolidin-3-yl)-4-(trifluoromethoxy)butan-2-yl)-3-azabicyclo[3.1.0]-hexane-2-carboxamide]",0.2 to 0.5 µM

# Reference: US11708348B2, “Protease inhibitors for treatment of coronavirus infections” (The Scripps Research Institute, priority 2021, dated 2023)
